The results in this text go back to PMC8831520, “Small molecule SWELL1 complex induction improves glycemic control and nonalcoholic fatty liver disease in murine Type 2 diabetes” (Nature Communications, 2022).

One test relates to cadaveric human islets. Put plainly: GSIS perifusion of palmitate-treated human islets. The class given is cell-based. The note with it: 10 µM for 4 days prior to and during 1 mM palmitate 16 h, washed off during GSIS. The method, then:
Cadaveric human islets were obtained from the Integrated Islet Distribution Program (IIDP), Prodo Laboratories, and the Alberta Diabetes Institute Islet Core. The human islets obtained from the Integrated Islet Distribution program and Prodo laboratories were exempt from Institutional Review Board approval under 45 CRR 46.101 (b) category (4) and 45 CFR 46.102 h, respectively. Human islets were obtained from the Alberta Diabetes Institute IsletCore at the University of Alberta in Edmonton (http://www.bcell.org/adi-isletcore.html) with the assistance of the Human Organ Procurement and Exchange (HOPE) program, Trillium Gift of Life Network (TGLN), and other Canadian organ procurement organizations. Islet isolation was approved by the Human Research Ethics Board at the University of Alberta (Pro00013094). All donors’ families gave informed consent for the use of pancreatic tissue in research. Human islets were cultured in RPMI media with 2% FBS overnight. […] Insulin concentrations were further determined using a commercially available ELISA kit (Mercodia). The area under the curve (AUC) for the high-glucose-induced insulin release was calculated for time points between 50 to 74/84 min. At the completion of the experiment, islets were further lysed by the addition of RIPA buffer and the amount of insulin was detected by ELISA.

Another test deals with murine islets. Put plainly: GSIS perifusion of palmitate-treated murine islets. Type of test: cell-based, mouse. The note with it: 10 µM for 4 days prior to and during 1 mM palmitate 16 h, washed off during GSIS.
For another test, the system named is T2D KKAy mice. Put plainly: Euglycemic hyperinsulinemic clamp with tracers. Type of test: in vivo, mouse. The method, then: Sterile silicone catheters (Dow-Corning) were placed into the jugular vein of mice under isoflurane anesthesia. The placed catheter was flushed with 200 U/mL heparin in saline and the free end of the catheter was directed subcutaneously via a blunted 14-gauge sterile needle and connected to a small tubing device that exited through the back of the animal. […] Hyperinsulinemic euglycemic clamps were performed on day 8 post-surgery on unrestrained, conscious mice as described elsewhere[82],[83], with some modifications. Mice were fasted for 6 h at which time insulin and glucose infusion were initiated (time 0). At 80 min prior to time 0 basal sampling was conducted, where whole-body glucose flux was traced by infusion of 0.05 μCi/min D-[3-^3H]-glucose (Perkin Elmer), after a priming 5 μCi bolus for 1 min. After the basal period, starting at time 0 D-[3-^3H]-glucose was continuously infused at the rate of 0.2 μCi/min and the infusion of insulin (Humulin, Eli Lilly) was initiated with a bolus of 80 mU/kg/min (10 µl volume for 1 min) then followed by continuous infusion of insulin at the dose of 8 mU/kg/min throughout the assay. Fifty percent dextrose (Hospira) was infused at variable rates (GIR) starting at the same time as the initiation of insulin infusion to maintain euglycemia at the targeted level of 150 mg/dL (8.3 mM). Blood glucose (BG) measurements were taken every ten minutes via tail vein sampling using a Contour glucometer (Bayer). After the mouse reached stable BG and GIR (typically, after 75 min since starting the insulin infusion; for some mice, a long time was required to achieve steady-state) a single bolus of 12 μCi of [1-^14C]-2-deoxy-D-glucose (Perkin Elmer) in 96 μl of saline was administered. Plasma samples (collected from centrifuged blood) for determination of tracers enrichment, glucose level, and insulin concentration were obtained at times −80, −20, −10, 0, and every 10 min starting at 80 min post-insulin (5 min after [1-^14C]-2-deoxy-D-glucose bolus was administered) until the conclusion of the assay at 140 min. Tissue samples were then collected from mice under isofluorane anesthesia from organs of interest (e.g., liver, heart, kidney, white adipose tissue, brown adipose tissue, gastrocnemius, soleus, etc.) for determination of 1-^14C]-2-deoxy-D-glucose tracer uptake. Plasma and tissue samples were processed as described previously. Briefly, plasma samples were deproteinized with Ba(OH)2 and ZnSO4 and dried to eliminate tritiated water. The glucose turnover rate (mg/kg-min) was calculated as the rate of tracer infusion (dpm/min) divided by the corrected plasma glucose specific activity (dpm/mg) per kg body weight of the mouse. Fluctuations from steady-state were accounted for by the use of Steele’s model. Plasma glucose was measured using the Analox GMD9 system (Analox Technologies).
Tissue samples (~30 mg each) were homogenized in 750 µl of 0.5% perchloric acid, neutralized with 10 M KOH, and centrifuged. The supernatant was then used for first measuring the abundance of total [1-^14C] signal (derived from both 1-^14C -2-deoxy-D-glucose, 1-^14C -2-deoxy-D-glucose 6 phosphate) and, following a precipitation step with 0.3 N […] and 0.3 N ZnSO4, for the measuring of non-phosphorylated 1-^14C -2-deoxy-D-glucose. Glycogen was isolated by ethanol precipitation from 30% KOH tissue lysates, as described. Insulin levels in plasma at T0 and T140 were measured using a Stellux ELISA rodent insulin kit (Alpco).

For `CCCCC1(C2CCCC2)Cc2cc(OCCCC(=O)O)c(Cl)c(Cl)c2C1=O` (stereo not shown) [SN-401, 4-((2-butyl-6,7-dichloro-2-cyclopentyl-1-oxo-2,3-dihydro-1H-inden-5-yl)oxy)butanoic acid], the “glucose-stimulated insulin secretion after palmitate” value in the test on cadaveric human islets and in the test with murine islets was “normalized” in each case. Moreover, in the test on T2D KKAy mice (KKAy mice), the “glucose incorporation into glycogen in liver, adipose, and skeletal muscle” value is given as “markedly increased”. In addition, the “insulin-stimulated 2-DG uptake into iWAT, gWAT and myocardium” value with T2D KKAy mice (KKAy mice) is reported as “enhanced”. The “glucose-infusion rate (GIR) to maintain euglycemia” value in the test on T2D KKAy mice (KKAy mice, 5 mg/kg i.p. 4 days, vs vehicle) is listed as “higher”. Further, in the test on T2D KKAy mice (baseline (Basal)), the “reduction of rate of glucose appearance (Ra)” value came out at 40%. Besides, the “suppression of rate of glucose appearance (Ra)” value in the test with T2D KKAy mice (during glucose/insulin infusion (Clamp)) is given as 75%.
